In publication PMC6359543, “Efficacy of Azatyrosine-Phenylbutyric Hydroxamides, a Histone Deacetylase Inhibitor, on Chemotherapy-Induced Gastrointestinal Mucositis” (International Journal of Molecular Sciences, 2019):
Where two headings read alike, the source gives them in different places.

Assays:
HDAC3 = molecular target: T1, HDAC3 (Homo sapiens, UniProt O15379); experiment: HDAC fluorometric activity assay, HDAC3; format: biochemical
T1 construct: purchased Enzo Life Sciences, Farmingdale, NY, USA
Experimental: (§1) Pan HDAC enzyme (all the known class I HDACs-HDAC1, HDAC2, HDAC3, HDAC8 and class II HDACs 4-7, 9 and 10), HDAC subtype 1, 3 and 4 activity were determined by using the HDAC fluorometric cellular activity assay (Enzo Life Sciences, Farmingdale, NY, USA) according to the manufacturer’s protocol. […] Percent activity for each of the test compounds is calculated as follows:
(§2) Activity = {(Sc − B)/(S° − B)} × 100. […] IC50 was then calculated and represented as mean ± SD.

[1] = tested on: Salmonella typhimurium TA1537; experiment: Salmonella/microsome reversion assay (Ames test), TA1537; format: cell-based
[2] = tested on: Salmonella typhimurium TA98; experiment: Salmonella/microsome reversion assay (Ames test), TA98; format: cell-based
HDAC1 = molecular target: T2, HDAC1 (Homo sapiens, UniProt Q13547); experiment: HDAC fluorometric activity assay, HDAC1; format: biochemical
T2 construct: purchased Enzo Life Sciences, Farmingdale, NY, USA
Experimental: as §1, §2

IEC-6 cells [3] = experiment: Cisplatin-reduced IEC-6 cell viability; format: cell-based, Rat; conditions: data not shown
[4] = tested on: Salmonella typhimurium TA1535; format: cell-based
IEC-6 cells [5] = experiment: LPS-induced MAPK/Akt phosphorylation in IEC-6 cells (Western blot); format: cell-based, Rat
Experimental: Figure 6 Western blotting of IEC-6 cells treated with LPS and/or AzP. (A) IEC-6 cells (1 × 10^6 cells/mL) were dispensed on 6 cm dishes and (A) treated with LPS (500 ng/mL) for 10, 20, 30, 60, and 90 min. Data expressed as means ± SD from 3 independent experiments. * p < 0.05 as compared with the resting. (B) Treatment with LPS (500 ng/mL) for 10 min as indicated. Cells were treated with the indicated concentrations of AzP (5, 10, and 20 μM) or vehicle for 30 min before treatment with LPS. Cell lysates were collected for Western blot targeting p-ERK phosphorylation (Thr202/Tyr204, B), MEK phosphorylation ([…], C), and Akt phosphorylation (Ser473, D). Data expressed as means ± SD from 3 independent experiments. ### p < 0.001 as compared with the resting, * p < 0.05, ** p < 0.01 and *** p < 0.001 as compared with the vehicle.
(§3) IEC-6 cells were incubated in different AzP concentrations with/without LPS stimulation for 24 h. The homogenate from cells or tissues was then centrifuged at 14,000× g for 10 min at 4 °C and the supernatant was collected. Protein separation was performed using 10% reducing SDS-PAGE, electrotransferred onto polyvinylidene difluoride (PVDF), and immunoblotted with antibodies against inflammatory proteins as well as β-actin as control. Densitometry was performed using BioLight software V2000.01 (Uhldingen-Mühlhofen, Germany). The optical density of specific protein was normalized to an internal control and expressed as a ratio to control.

IEC-6 cells [6] = experiment: LPS-induced inflammatory protein expression in IEC-6 cells (Western blot); format: cell-based, Rat; conditions: LPS 500 ng/mL 8 h, AzP 1–20 μM
Experimental: Figure 5 Hierarchical clustering and KEGG analyses of gene profiles of the AzP-manipulated IEC-6 cells. (A) Two independent experiments were performed, samples were named C1, C2 as control group (1% dimethyl sulfoxide (DMSO)); LPS1, LPS2 as lipopolysaccharide (LPS) 500 ng/mL group; LPS + AzP1, LPS + AzP2 as LPS 500 ng/mL and AzP 20 μM group. Heat maps showing the clustering analysis of the IEC-6 cells with different treatments (1% DMSO, LPS 500 ng/mL and/or AzP 20 μM) indicates up-regulation (red), down-regulation (green), and mean gene expression (black). […] IEC-6 cells were treated with LPS 500 ng/mL for 8 h and/or AzP 1–20 μM, Western blot performed and immunoblotted with several inflammatory protein expressions including MMP-9 (C), IL-1β (D), iNOS (E), and IL-6 (F). Density was measured and calculated. ### p < 0.001 as compared with the control, ## p < 0.01 as compared with the control, # p < 0.05 as compared with the control, * p < 0.05 as compared with the LPS-treated group, ** p < 0.01 as compared with the LPS-treated group and *** p < 0.001 as compared with LPS-treated group.
as §3

HDAC4 = molecular target: T3, HDAC4 (Homo sapiens, UniProt P56524); experiment: HDAC fluorometric activity assay, HDAC4; format: biochemical
T3 construct: purchased Enzo Life Sciences, Farmingdale, NY, USA
Experimental: as §1, §2

T3 sequence (P56524 whole entry, species assumed): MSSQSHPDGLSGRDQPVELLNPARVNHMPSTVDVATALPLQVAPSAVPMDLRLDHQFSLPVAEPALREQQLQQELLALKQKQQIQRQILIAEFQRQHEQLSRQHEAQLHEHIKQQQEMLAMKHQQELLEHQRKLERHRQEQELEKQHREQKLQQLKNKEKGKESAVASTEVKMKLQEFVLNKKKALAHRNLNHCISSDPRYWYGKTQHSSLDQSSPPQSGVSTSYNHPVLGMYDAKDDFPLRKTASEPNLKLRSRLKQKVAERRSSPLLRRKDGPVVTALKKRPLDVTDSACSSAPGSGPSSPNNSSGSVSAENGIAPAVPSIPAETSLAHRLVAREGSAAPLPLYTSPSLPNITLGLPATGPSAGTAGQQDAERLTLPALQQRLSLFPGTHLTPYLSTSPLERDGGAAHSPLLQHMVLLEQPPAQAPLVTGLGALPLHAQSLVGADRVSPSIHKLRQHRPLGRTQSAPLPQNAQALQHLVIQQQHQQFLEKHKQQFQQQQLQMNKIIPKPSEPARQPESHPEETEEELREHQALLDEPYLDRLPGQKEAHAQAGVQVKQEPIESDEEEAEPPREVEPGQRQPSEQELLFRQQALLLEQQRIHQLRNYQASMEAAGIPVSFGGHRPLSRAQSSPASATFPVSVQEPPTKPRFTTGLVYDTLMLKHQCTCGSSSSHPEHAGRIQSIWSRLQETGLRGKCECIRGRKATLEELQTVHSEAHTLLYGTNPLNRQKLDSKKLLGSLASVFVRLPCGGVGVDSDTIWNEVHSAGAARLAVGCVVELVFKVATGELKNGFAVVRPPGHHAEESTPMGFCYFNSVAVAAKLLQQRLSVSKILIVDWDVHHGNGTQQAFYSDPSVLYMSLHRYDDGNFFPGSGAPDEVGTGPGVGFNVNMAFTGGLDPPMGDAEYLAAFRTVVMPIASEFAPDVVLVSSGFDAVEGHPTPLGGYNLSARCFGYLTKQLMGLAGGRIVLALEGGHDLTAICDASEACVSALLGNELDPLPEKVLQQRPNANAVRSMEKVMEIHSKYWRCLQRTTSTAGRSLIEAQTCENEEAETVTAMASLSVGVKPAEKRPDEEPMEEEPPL
T2 sequence (Q13547 whole entry, species assumed): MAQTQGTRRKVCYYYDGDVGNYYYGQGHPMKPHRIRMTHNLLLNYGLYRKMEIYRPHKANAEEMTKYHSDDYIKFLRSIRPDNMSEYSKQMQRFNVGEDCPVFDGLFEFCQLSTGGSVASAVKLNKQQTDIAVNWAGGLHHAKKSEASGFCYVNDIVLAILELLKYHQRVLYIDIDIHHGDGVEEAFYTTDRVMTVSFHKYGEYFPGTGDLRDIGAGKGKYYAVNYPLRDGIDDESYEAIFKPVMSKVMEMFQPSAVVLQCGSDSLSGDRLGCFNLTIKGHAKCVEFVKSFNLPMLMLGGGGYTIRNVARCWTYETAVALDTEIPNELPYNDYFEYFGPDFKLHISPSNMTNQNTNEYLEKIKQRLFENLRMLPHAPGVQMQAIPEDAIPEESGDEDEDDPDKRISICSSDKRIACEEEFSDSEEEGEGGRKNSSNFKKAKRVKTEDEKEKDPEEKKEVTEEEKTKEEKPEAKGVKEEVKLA
T1 sequence (O15379 whole entry, species assumed): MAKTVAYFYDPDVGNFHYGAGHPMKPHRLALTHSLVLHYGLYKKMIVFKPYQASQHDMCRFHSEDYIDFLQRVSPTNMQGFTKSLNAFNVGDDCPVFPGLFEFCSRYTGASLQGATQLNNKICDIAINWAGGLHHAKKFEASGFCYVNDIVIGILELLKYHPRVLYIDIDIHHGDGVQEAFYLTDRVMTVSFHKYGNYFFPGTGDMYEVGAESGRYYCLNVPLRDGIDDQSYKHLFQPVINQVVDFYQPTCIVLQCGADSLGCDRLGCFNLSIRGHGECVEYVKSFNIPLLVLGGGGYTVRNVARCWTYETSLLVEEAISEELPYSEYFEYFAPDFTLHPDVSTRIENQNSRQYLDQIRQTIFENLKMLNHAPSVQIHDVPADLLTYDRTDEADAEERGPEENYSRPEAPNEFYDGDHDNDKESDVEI
T1 sequence (O75376 395-489 partner limits assumed, species assumed): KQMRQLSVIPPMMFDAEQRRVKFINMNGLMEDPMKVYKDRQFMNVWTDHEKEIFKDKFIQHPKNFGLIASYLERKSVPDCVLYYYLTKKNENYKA

With `CC(C)(C)OC(=O)NC(Cc1ccc(OCc2ccccc2)cn1)C(=O)Nc1ccc(CCCC(=O)NO)cc1` (centres unmarked) [AzP, Azatyrosine-phenylbutyric hydroxamides] the IC50 (HDAC3) was 660 ± 99 nM, the “Ames test result, TA1537 (-S9)” value ([1]; -S9) was “Negative” and the “Revertant colonies per plate (+S9) TA1537” value ([1]; AzP 0.00245 mg/plate) was 32.3±3. The “Revertant colonies per plate (-S9) TA1537” value ([1]; AzP 0.00245 mg/plate) was 15±0.5, the “Revertant colonies per plate (+S9) TA1537” value ([1]; AzP 0.0049 mg/plate) was 35.3±2.2 and the “Revertant colonies per plate (-S9) TA1537” value ([1]; AzP 0.0049 mg/plate) was 10.7±0.9. The “Revertant colonies per plate (+S9) TA1537” value ([1]; AzP 0.0098 mg/plate) was 29.3±2.2, the “Revertant colonies per plate (-S9) TA1537” value ([1]; AzP 0.0098 mg/plate) was 10±0.6 and the “Revertant colonies per plate (+S9) TA1537” value ([1]; AzP 0.0195 mg/plate) was 27.3±2.7. The “Revertant colonies per plate (-S9) TA1537” value ([1]; AzP 0.0195 mg/plate) was 10±2, the “Revertant colonies per plate (+S9) TA1537” value ([1]; AzP 0.0391 mg/plate) was 22.1±2.5 and the “Revertant colonies per plate (-S9) TA1537” value ([1]; AzP 0.0391 mg/plate) was 11.8±6. For the same compound, the “Revertant colonies per plate (+S9) TA1537” value ([1]; AzP 0.0781 mg/plate) was 16±2.5, the “Revertant colonies per plate (-S9) TA1537” value ([1]; AzP 0.0781 mg/plate) was 12±4.9 and the “Revertant colonies per plate (+S9) TA1537” value ([1]; AzP 0.156 mg/plate) was 18±1. The “Revertant colonies per plate (-S9) TA1537” value ([1]; AzP 0.156 mg/plate) was 14.7±2, the “Ames test result, TA1537 (|S9)” value ([1]; second S9 group) was “Negative” and the “Ames test result, TA98 (-S9)” value ([2]; -S9) was “Negative”. For the same compound, the “Revertant colonies per plate (+S9) TA98” value ([2]; AzP 0.00245 mg/plate) was 59.7±3.8, the “Revertant colonies per plate (-S9) TA98” value ([2]; AzP 0.00245 mg/plate) was 42±4.6 and the “Revertant colonies per plate (+S9) TA98” value ([2]; AzP 0.0049 mg/plate) was 58.3±4.7. For the same compound, the “Revertant colonies per plate (-S9) TA98” value ([2]; AzP 0.0049 mg/plate) was 29±5.7, the “Revertant colonies per plate (+S9) TA98” value ([2]; AzP 0.0098 mg/plate) was 56.3±3.4 and the “Revertant colonies per plate (-S9) TA98” value ([2]; AzP 0.0098 mg/plate) was 24±5.4. For the same compound, the “Revertant colonies per plate (+S9) TA98” value ([2]; AzP 0.0195 mg/plate) was 59.7±0.7, the “Revertant colonies per plate (-S9) TA98” value ([2]; AzP 0.0195 mg/plate) was 33.7±3 and the “Revertant colonies per plate (+S9) TA98” value ([2]; AzP 0.0391 mg/plate) was 62.7±2.3. The “Revertant colonies per plate (-S9) TA98” value ([2]; AzP 0.0391 mg/plate) was 33.7±2.8, the “Revertant colonies per plate (+S9) TA98” value ([2]; AzP 0.0781 mg/plate) was 56.3±2.2 and the “Revertant colonies per plate (+S9) TA98” value ([2]; AzP 0.156 mg/plate) was 61±1.2. For the same compound, the “Revertant colonies per plate (+S9) TA98” value ([2]; AzP 0.3125 mg/plate) was 69.7±5.8, the “Revertant colonies per plate (+S9) TA98” value ([2]; AzP 0.625 mg/plate) was 64±2.9 and the “Ames test result, TA98 (|S9)” value ([2]; second S9 group) was “Negative”. The IC50 (HDAC1) was 3440 ± 680 nM, the “influence on cisplatin-reduced cell viability” value (IEC-6 cells [3]) was “did not influence” and the “Ames test result, TA1535 (-S9)” value ([4]; -S9) was “Negative”. The “Revertant colonies per plate (-S9) TA1535” value ([4]; AzP 0.0195 mg/plate) was 52±1.2, the “Revertant colonies per plate (+S9) TA1535” value ([4]; AzP 0.0391 mg/plate) was 46.5±3.3 and the “Revertant colonies per plate (-S9) TA1535” value ([4]; AzP 0.0391 mg/plate) was 47.3±9. The “Revertant colonies per plate (+S9) TA1535” value ([4]; AzP 0.0781 mg/plate) was 50.5±4.9, the “Revertant colonies per plate (-S9) TA1535” value ([4]; AzP 0.0781 mg/plate) was 59±0.6 and the “Revertant colonies per plate (+S9) TA1535” value ([4]; AzP 0.156 mg/plate) was 52.5±5.2. For the same compound, the “Revertant colonies per plate (-S9) TA1535” value ([4]; AzP 0.156 mg/plate) was 61.3±2.2, the “Revertant colonies per plate (+S9) TA1535” value ([4]; AzP 0.3125 mg/plate) was 51.7±3.6 and the “Revertant colonies per plate (-S9) TA1535” value ([4]; AzP 0.3125 mg/plate) was 54.6±7.2. For the same compound, the “Revertant colonies per plate (+S9) TA1535” value ([4]; AzP 0.625 mg/plate) was 59.2±3.3, the “Revertant colonies per plate (-S9) TA1535” value ([4]; AzP 0.625 mg/plate) was 52.2±13.4 and the “Revertant colonies per plate (+S9) TA1535” value ([4]; AzP 1.25 mg/plate) was 67±3.2. For the same compound, the “Revertant colonies per plate (+S9) TA1535” value ([4]; AzP 2.5 mg/plate) was 58±2.1, the “Ames test result, TA1535 (|S9)” value ([4]; second S9 group) was “Negative” and the “LPS-induced ERK activation (phosphorylation)” value (IEC-6 cells [5]; LPS 500 ng/mL 10 min, AzP 5–20 μM) was “dose-dependently reverse”. The “LPS-induced Akt phosphorylation” value (IEC-6 cells [5]; LPS 10 min, AzP 5–20 μM) was “concentration-dependently reversed”, the “LPS-induced MEK1/2 phosphorylation” value (IEC-6 cells [5]; LPS 10 min, AzP 5–20 μM) was “concentration-dependently reversed” and the JNK phosphorylation (IEC-6 cells [5]; LPS, data not shown) was “unaffected”. The p38 phosphorylation (IEC-6 cells [5]; LPS, data not shown) was “unaffected”, the IKK phosphorylation (IEC-6 cells [5]; Western blot) was “unaffected” and the p65 phosphorylation (IEC-6 cells [5]; Western blot) was “unaffected”. For the same compound, the “LPS-induced IL-1β protein expression” value (IEC-6 cells [6]) was “concentration-dependently inhibited”, the “LPS-induced IL-6 protein expression” value (IEC-6 cells [6]) was “concentration-dependently inhibited” and the “LPS-induced MMP9 protein expression” value (IEC-6 cells [6]) was “concentration-dependently inhibited”. For the same compound, the “protein expression of iNOS” value (IEC-6 cells [6]) was “unaffected” and the IC50 (HDAC4) was 1970 ± 110 nM.
